Reference: the supplement of paper PMC12076712

Legend:
Assay in all cases: pIC50, kinobeads binding competition
UniProt Q13164 = target: UniProt Q13164
Method in brief: (§1)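 Either living Jurkat cells (60 min at 37 °C, then lysis) or lysates (60 min at 4 °C) were treated with nine compound concentrations from a top of 30 μM, in 1:4 steps for cells and 1:5 steps for lysates. The lysates were from Jurkat cells or a 1:1:1:1 mix of HEK293, K-562, HepG2 and placenta. Kinobeads-bound proteins were digested and quantified by TMT10 LC-MS/MS. pIC50 was calculated by logistic dose-response fitting (R drc package) of fold changes relative to vehicle, in biological duplicates.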

UniProt Q05397 = target: UniProt Q05397
UniProt Q05397, sequence (Q05397 whole entry, looked up): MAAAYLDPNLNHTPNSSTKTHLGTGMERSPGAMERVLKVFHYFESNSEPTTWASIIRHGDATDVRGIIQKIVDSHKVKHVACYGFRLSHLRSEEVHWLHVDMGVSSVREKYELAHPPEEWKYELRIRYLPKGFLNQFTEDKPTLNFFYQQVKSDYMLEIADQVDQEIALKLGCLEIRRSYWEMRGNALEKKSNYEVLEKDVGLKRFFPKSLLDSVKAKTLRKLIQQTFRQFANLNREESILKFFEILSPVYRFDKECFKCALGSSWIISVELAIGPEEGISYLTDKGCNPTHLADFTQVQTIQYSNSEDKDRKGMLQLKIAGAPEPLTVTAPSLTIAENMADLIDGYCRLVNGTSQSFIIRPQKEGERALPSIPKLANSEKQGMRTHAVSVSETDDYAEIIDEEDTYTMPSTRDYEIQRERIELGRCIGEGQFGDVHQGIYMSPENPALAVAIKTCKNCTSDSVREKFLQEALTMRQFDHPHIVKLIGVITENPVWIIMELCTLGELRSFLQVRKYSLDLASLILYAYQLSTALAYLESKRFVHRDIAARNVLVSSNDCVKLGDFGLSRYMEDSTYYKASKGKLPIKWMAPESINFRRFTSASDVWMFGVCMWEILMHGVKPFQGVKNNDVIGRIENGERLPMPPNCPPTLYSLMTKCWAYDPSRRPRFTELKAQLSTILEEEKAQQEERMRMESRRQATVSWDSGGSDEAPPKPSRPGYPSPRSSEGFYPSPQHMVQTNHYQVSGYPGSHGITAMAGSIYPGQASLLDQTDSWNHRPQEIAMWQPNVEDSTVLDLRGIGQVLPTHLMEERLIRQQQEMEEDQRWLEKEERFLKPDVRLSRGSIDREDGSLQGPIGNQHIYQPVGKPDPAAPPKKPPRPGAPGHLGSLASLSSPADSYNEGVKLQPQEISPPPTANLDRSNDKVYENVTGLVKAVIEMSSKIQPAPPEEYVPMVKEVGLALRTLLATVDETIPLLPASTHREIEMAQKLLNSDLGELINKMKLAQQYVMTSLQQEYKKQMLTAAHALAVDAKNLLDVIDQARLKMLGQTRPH
Method in brief: as §1

UniProt Q13557 = target: UniProt Q13557
UniProt Q13557, sequence (Q13557 whole entry): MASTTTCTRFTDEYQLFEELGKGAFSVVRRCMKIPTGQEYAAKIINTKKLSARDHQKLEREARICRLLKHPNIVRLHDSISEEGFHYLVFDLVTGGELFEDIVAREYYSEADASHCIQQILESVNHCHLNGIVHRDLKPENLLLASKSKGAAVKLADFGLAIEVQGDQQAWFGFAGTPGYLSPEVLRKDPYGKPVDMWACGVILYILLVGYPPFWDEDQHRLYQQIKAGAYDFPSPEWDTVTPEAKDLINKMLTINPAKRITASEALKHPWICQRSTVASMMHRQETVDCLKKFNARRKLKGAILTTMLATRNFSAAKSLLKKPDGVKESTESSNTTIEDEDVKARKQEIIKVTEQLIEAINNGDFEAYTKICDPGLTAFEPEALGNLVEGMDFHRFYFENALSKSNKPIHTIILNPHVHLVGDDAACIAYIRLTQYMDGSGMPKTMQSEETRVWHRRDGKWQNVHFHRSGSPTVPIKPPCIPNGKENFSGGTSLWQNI
Method in brief: as §1

UniProt P48729 = target: UniProt P48729
Method in brief: as §1

UniProt O14920 = target: T1, UniProt O14920
T1 sequence (whole entry): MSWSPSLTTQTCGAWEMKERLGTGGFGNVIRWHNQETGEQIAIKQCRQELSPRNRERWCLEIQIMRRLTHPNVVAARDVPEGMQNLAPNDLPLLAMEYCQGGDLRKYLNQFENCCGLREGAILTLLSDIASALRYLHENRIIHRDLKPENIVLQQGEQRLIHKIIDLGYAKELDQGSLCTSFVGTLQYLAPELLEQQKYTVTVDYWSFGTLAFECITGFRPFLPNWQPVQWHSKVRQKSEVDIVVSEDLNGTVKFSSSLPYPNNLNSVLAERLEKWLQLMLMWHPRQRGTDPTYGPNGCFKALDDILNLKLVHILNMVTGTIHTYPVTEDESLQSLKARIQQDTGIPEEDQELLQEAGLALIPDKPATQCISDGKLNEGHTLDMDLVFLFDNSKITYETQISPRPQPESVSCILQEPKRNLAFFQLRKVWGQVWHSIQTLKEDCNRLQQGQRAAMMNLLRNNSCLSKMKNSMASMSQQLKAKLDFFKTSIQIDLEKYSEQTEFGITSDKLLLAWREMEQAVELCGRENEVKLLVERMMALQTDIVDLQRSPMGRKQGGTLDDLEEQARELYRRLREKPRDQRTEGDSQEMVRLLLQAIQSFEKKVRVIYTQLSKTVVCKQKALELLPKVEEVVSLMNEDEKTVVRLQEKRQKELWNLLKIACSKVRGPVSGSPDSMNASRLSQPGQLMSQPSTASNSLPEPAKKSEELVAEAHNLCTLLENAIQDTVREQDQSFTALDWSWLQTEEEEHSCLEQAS
Method in brief: as §1

UniProt Q13233 = target: UniProt Q13233
Method in brief: as §1

UniProt P06493 = target: UniProt P06493
UniProt P06493, sequence (P06493 whole entry, looked up): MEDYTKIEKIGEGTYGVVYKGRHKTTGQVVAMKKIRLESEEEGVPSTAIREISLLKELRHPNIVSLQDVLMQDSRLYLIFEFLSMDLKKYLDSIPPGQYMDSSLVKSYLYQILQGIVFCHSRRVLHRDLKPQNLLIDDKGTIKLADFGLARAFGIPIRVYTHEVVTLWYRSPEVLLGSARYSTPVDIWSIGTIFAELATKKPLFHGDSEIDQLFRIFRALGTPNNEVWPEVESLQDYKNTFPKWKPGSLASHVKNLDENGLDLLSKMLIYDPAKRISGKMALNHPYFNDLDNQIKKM
Method in brief: as §1

UniProt Q15418 = target: UniProt Q15418
UniProt Q15418, sequence (Q15418 whole entry): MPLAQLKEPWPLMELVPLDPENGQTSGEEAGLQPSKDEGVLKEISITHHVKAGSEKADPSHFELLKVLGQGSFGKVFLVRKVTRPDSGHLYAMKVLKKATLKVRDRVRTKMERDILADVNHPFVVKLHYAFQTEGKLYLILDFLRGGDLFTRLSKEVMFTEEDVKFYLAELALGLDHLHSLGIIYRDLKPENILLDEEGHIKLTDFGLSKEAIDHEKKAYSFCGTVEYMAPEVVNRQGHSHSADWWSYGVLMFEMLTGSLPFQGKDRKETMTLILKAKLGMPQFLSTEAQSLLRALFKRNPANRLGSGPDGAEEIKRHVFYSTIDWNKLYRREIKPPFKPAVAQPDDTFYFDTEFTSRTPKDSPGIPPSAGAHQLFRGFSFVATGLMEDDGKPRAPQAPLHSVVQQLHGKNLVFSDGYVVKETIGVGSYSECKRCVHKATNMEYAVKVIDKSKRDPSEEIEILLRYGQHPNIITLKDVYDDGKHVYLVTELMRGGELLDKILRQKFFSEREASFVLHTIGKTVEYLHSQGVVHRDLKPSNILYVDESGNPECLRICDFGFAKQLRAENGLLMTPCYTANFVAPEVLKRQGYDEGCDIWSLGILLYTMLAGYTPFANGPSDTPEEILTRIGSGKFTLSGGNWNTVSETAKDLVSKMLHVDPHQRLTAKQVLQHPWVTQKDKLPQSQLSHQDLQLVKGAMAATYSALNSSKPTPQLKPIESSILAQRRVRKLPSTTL
Method in brief: as §1

EIF2AK4 = EIF2AK4 (UniProt Q9P2K8)
Method in brief: as §1

BUB1 = BUB1 (UniProt O43683)
Method in brief: as §1

CDK6 = CDK6 (UniProt Q00534)
CDK6, sequence (Q00534 whole entry): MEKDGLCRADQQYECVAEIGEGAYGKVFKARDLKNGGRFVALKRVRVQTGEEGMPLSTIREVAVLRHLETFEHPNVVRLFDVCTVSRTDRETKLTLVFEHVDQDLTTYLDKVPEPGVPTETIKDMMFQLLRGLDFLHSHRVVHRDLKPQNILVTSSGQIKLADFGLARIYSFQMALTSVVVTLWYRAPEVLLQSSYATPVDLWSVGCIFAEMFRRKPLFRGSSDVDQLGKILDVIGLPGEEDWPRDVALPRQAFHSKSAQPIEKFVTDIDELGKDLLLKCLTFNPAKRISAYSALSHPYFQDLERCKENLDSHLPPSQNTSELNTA
Method in brief: as §1

FGFR1 = FGFR1 (UniProt P11362)
FGFR1, sequence (P11362 whole entry, looked up): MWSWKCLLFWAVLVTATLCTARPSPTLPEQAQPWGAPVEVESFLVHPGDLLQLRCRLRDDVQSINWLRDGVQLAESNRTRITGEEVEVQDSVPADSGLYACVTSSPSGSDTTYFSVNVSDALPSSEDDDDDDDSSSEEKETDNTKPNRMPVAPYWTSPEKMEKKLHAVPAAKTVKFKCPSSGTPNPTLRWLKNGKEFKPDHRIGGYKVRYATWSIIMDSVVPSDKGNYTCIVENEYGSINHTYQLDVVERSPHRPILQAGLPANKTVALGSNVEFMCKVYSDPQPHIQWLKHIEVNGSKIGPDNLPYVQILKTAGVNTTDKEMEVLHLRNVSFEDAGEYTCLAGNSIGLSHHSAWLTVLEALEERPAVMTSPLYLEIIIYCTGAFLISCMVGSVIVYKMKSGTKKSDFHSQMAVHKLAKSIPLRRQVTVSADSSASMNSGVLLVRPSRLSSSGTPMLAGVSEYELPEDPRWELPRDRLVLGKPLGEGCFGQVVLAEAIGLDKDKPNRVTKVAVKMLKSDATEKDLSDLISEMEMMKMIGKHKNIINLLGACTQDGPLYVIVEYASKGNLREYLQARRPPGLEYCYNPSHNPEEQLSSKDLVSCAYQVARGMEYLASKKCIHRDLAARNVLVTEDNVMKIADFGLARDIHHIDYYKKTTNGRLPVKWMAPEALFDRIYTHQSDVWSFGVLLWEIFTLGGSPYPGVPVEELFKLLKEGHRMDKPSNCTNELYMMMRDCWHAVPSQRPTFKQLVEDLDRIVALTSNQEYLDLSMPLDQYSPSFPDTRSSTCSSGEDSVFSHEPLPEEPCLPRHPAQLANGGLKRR
Method in brief: as §1

UniProt P49841 = target: UniProt P49841
UniProt P49841, sequence (P49841 whole entry, looked up): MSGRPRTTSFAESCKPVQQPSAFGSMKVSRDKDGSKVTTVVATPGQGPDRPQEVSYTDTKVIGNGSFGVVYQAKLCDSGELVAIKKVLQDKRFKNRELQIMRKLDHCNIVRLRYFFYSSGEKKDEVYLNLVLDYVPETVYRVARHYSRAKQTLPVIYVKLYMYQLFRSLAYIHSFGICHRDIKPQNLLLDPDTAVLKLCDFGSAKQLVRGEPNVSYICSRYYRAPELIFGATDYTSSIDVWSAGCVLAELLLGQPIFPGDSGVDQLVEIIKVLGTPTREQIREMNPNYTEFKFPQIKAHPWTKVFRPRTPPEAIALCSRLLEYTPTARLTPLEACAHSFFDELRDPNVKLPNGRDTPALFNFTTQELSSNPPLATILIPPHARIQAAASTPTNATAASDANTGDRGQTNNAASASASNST
Method in brief: as §1

UniProt O75716 = target: UniProt O75716
UniProt O75716, sequence (O75716 whole entry): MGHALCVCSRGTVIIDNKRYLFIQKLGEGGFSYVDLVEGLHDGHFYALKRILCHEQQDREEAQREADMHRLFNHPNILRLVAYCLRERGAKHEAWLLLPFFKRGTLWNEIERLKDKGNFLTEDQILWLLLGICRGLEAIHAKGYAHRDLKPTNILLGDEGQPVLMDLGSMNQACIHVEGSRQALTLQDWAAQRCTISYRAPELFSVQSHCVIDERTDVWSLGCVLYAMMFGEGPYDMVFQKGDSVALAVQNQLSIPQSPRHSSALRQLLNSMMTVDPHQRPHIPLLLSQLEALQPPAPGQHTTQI
Method in brief: as §1

UniProt O14757 = target: T2, UniProt O14757
T2 sequence (whole entry): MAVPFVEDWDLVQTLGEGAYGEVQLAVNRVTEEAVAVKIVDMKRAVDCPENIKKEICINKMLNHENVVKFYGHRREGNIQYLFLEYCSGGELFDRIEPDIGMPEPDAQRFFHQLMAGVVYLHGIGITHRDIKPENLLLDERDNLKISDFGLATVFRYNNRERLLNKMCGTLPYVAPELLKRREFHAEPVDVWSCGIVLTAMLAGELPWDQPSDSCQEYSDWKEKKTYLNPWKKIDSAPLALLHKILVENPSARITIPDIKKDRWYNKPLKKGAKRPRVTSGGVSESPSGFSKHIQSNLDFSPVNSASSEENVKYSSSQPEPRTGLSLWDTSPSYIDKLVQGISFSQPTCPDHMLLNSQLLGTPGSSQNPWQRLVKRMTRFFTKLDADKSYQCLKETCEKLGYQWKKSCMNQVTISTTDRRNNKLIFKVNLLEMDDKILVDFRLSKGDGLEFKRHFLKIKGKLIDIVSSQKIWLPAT
Method in brief: as §1

STK39 = STK39 (UniProt Q9UEW8)
Method in brief: as §1

TGFBR2 = TGFBR2 (UniProt P37173)
TGFBR2, sequence (P37173 whole entry): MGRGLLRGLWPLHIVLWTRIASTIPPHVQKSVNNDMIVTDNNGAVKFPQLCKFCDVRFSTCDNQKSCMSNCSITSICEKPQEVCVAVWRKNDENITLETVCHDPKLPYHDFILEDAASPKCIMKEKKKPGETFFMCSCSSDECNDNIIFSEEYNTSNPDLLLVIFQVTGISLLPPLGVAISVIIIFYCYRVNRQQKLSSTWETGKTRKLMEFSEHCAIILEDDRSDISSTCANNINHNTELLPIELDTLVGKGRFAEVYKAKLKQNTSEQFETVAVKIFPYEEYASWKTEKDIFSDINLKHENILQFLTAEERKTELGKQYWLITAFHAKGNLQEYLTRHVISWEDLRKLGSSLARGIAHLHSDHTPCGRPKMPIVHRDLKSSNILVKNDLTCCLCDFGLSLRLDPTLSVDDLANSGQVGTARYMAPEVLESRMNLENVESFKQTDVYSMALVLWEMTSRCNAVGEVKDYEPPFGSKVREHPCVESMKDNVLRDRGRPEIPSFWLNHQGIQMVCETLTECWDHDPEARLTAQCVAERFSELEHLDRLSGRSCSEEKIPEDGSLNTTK
Method in brief: as §1

UniProt Q92918 = target: UniProt Q92918
Method in brief: as §1

UniProt Q13188 = target: T3, UniProt Q13188
T3 sequence (whole entry): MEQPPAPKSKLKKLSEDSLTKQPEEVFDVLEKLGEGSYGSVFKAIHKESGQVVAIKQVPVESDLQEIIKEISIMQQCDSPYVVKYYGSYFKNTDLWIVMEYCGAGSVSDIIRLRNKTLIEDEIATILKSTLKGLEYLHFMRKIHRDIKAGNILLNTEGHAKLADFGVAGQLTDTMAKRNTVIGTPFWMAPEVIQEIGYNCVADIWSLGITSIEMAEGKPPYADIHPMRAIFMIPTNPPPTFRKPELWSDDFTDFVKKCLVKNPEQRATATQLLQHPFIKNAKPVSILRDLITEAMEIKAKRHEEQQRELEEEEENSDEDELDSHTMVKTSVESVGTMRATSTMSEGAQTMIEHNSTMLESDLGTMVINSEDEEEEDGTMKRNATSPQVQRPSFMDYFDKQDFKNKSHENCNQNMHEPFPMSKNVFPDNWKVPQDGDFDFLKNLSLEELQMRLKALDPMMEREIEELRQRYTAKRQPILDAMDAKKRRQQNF
Method in brief: as §1

Which results are given for `C#CCNC(=O)c1cc(Nc2cc(C3CC3)[nH]n2)nc(N2CCN(Cc3ccc(S(=O)(=O)F)cc3)CC2)n1`?
pIC50 (UniProt Q13164; cell material: Jurkat cells): 5.69; pIC50 (UniProt Q13164; cell material: Jurkat lysate): < 4.52; pIC50 (UniProt Q13164; cell material: Lysate mix): 5.14; pIC50 (UniProt Q05397; cell material: Jurkat cells): < 4.52; pIC50 (UniProt Q05397; cell material: Jurkat lysate): < 4.52; pIC50 (UniProt Q05397; cell material: Lysate mix): < 4.52; pIC50 (UniProt Q13557; cell material: Jurkat cells): 4.9; pIC50 (UniProt Q13557; cell material: Jurkat lysate): < 4.52; pIC50 (UniProt Q13557; cell material: Lysate mix): < 4.52; pIC50 (UniProt P48729; cell material: Jurkat cells): 5.51; pIC50 (UniProt P48729; cell material: Jurkat lysate): < 4.52; pIC50 (UniProt P48729; cell material: Lysate mix): < 4.52; pIC50 (UniProt O14920; cell material: Jurkat cells): < 4.52; pIC50 (UniProt O14920; cell material: Jurkat lysate): < 4.52; pIC50 (UniProt O14920; cell material: Lysate mix): < 4.52; pIC50 (UniProt Q13233; cell material: Jurkat lysate): < 4.52; pIC50 (UniProt Q13233; cell material: Lysate mix): < 4.52; pIC50 (UniProt P06493; cell material: Jurkat cells): 6.32; pIC50 (UniProt P06493; cell material: Jurkat lysate): 5.37; pIC50 (UniProt P06493; cell material: Lysate mix): 5.7; pIC50 (UniProt Q15418; cell material: Jurkat cells): 5.98; pIC50 (UniProt Q15418; cell material: Jurkat lysate): < 4.52; pIC50 (UniProt Q15418; cell material: Lysate mix): 5.49; pIC50 (EIF2AK4; cell material: Jurkat cells): 6.08; pIC50 (EIF2AK4; cell material: Jurkat lysate): 4.63; pIC50 (EIF2AK4; cell material: Lysate mix): 5.44; pIC50 (BUB1; cell material: Jurkat cells): 5; pIC50 (BUB1; cell material: Jurkat lysate): < 4.52; pIC50 (BUB1; cell material: Lysate mix): < 4.52; pIC50 (CDK6; cell material: Jurkat cells): 6.84; pIC50 (CDK6; cell material: Jurkat lysate): 5.43; pIC50 (CDK6; cell material: Lysate mix): 5.58; pIC50 (FGFR1; cell material: Jurkat cells): 5.72; pIC50 (FGFR1; cell material: Jurkat lysate): < 4.52; pIC50 (FGFR1; cell material: Lysate mix): 4.81; pIC50 (UniProt P49841; cell material: Jurkat cells): 5.26; pIC50 (UniProt P49841; cell material: Jurkat lysate): < 4.52; pIC50 (UniProt P49841; cell material: Lysate mix): < 4.52; pIC50 (UniProt O75716; cell material: Jurkat cells): 5.82; pIC50 (UniProt O75716; cell material: Jurkat lysate): 4.92; pIC50 (UniProt O75716; cell material: Lysate mix): 5.32; pIC50 (UniProt O14757; cell material: Jurkat cells): 5.16; pIC50 (UniProt O14757; cell material: Jurkat lysate): < 4.52; pIC50 (UniProt O14757; cell material: Lysate mix): < 4.52; pIC50 (STK39; cell material: Jurkat cells): 6.04; pIC50 (STK39; cell material: Jurkat lysate): 5.28; pIC50 (STK39; cell material: Lysate mix): 5.92; pIC50 (TGFBR2; cell material: Jurkat cells): 5.5; pIC50 (TGFBR2; cell material: Jurkat lysate): < 4.52; pIC50 (TGFBR2; cell material: Lysate mix): < 4.52; pIC50 (UniProt Q92918; cell material: Jurkat cells): 5.88; pIC50 (UniProt Q92918; cell material: Jurkat lysate): 5.35; pIC50 (UniProt Q92918; cell material: Lysate mix): 5.9; pIC50 (UniProt Q13188; cell material: Jurkat cells): 6.3; pIC50 (UniProt Q13188; cell material: Jurkat lysate): 5.64; pIC50 (UniProt Q13188; cell material: Lysate mix): 6.27

With `C#CCNC(=O)c1cc(Nc2cc(C)[nH]n2)nc(N2CCN(Cc3ccc(S(=O)(=O)F)cc3)CC2)n1` as the molecule, how does the pIC50 (UniProt Q13164; cell material: Lysate mix) read?
The pIC50 was less than 4.52.

What about the pIC50 (UniProt Q05397; cell material: Lysate mix) of the same molecule?
Its pIC50 is less than 4.52.

And the pIC50 (UniProt Q13557; cell material: Lysate mix)?
The pIC50 was less than 4.52.

And the pIC50 (UniProt P48729; cell material: Lysate mix)?
The pIC50 was less than 4.52.

And the pIC50 (UniProt O14920; cell material: Lysate mix)?
The pIC50 was less than 4.52.

And the pIC50 (UniProt Q13233; cell material: Lysate mix)?
The pIC50 was less than 4.52.

What about the pIC50 (UniProt P06493; cell material: Lysate mix) of the same molecule?
The pIC50 was less than 4.52.

And the pIC50 (UniProt Q15418; cell material: Lysate mix)?
The pIC50 was 5.27.

What about the pIC50 (EIF2AK4; cell material: Lysate mix) of the same molecule?
The pIC50 was 5.15.

What about the pIC50 (BUB1; cell material: Lysate mix) of the same molecule?
The pIC50 was less than 4.52.

And the pIC50 (CDK6; cell material: Lysate mix)?
Its pIC50 is 5.06.

What about the pIC50 (FGFR1; cell material: Lysate mix) of the same molecule?
The pIC50 was less than 4.52.

And the pIC50 (UniProt P49841; cell material: Lysate mix)?
The pIC50 was less than 4.52.

What about the pIC50 (UniProt O75716; cell material: Lysate mix) of the same molecule?
Its pIC50 is 4.89.

And the pIC50 (UniProt O14757; cell material: Lysate mix)?
Its pIC50 is less than 4.52.

What about the pIC50 (STK39; cell material: Lysate mix) of the same molecule?
Its pIC50 is 5.73.

And the pIC50 (TGFBR2; cell material: Lysate mix)?
The pIC50 was less than 4.52.

What about the pIC50 (UniProt Q92918; cell material: Lysate mix) of the same molecule?
Its pIC50 is 4.77.

What about the pIC50 (UniProt Q13188; cell material: Lysate mix) of the same molecule?
The pIC50 was 5.6.
